Source: patent publication US12252524B2, “GIP/GLP1 co-agonist compounds” (Eli Lilly and Company, priority 2018, dated 2025)
Numbered stars: 1 amine (or outer) side, 2 acyl side, 3 side chain; on linkers, the order of the positions; unused ones are H or OH. Square brackets hold non-standard residues; d marks the D form. Side chains are listed from the residue outwards. Peptide text beside a SMILES is read from it. * marks the point of attachment. C20 diacid = O=C(O)CCCCCCCCCCCCCCCCCCC(=O)*; γGlu = O=C(O)[C@H](CCC(=O)[*:2])N[*:1]; αMeF = C[C@](N)(Cc1ccccc1)C(=O)O; αMeL = CC(C)C[C@](C)(N)C(=O)O; AEEA = NCCOCCOCC(=O)O; Aib = CC(C)(N)C(=O)O

Columns and labels:
[1] = target: T1, human Gcg receptor (Homo sapiens, UniProt P47871); test: [125I]-Glucagon binding (SPA), human Gcg receptor; conditions: read-out: hGLcgR Ki, nM (SEM, n)
T1 construct: expressed in transfected cells; crude membranes
Method in brief: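 Crude membranes from cells expressing the receptor, prepared by hypotonic lysis in 50 mM Tris HCl pH 7.5 with protease inhibitors, homogenization and differential centrifugation, were used in a WGA-bead SPA. Binding buffer: 25 mM HEPES pH 7.4, 2.5 mM CaCl2, 1 mM MgCl2, bacitracin, Tween-20.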

[2] = target: T2, human GIP receptor (Homo sapiens, UniProt P48546); test: [125I]-GIP binding (SPA), human GIP receptor; conditions: read-out: hGIPR Ki, nM (SEM, n)
T2 construct: expressed in transfected cells; crude membranes
T2 sequence (P48546 22-466): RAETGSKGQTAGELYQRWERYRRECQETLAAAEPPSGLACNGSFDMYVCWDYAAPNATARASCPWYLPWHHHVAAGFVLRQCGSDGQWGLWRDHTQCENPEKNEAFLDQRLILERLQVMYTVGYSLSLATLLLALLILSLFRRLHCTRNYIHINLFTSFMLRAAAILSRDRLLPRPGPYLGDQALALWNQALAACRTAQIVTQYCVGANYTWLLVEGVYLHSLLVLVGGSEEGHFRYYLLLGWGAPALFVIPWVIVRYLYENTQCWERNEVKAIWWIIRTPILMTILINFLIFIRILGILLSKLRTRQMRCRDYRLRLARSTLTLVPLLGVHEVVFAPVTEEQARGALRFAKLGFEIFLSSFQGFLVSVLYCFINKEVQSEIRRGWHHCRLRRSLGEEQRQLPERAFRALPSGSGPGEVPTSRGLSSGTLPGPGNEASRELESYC

[3] = target: human GLP-1 receptor (GLP-1R) (Homo sapiens, UniProt P43220); test: cAMP pharmacological functional assay in presence of casein, hGLP-1R; assay type: cell-based; conditions: HEK293 cells expressing hGLP-1R, 0.1% Casein, geometric mean; read-out: hGLP1R cAMP Rel EC50 nM (SEM, n)
[4] = target: T3, gastric inhibitory peptide receptor (GIPR) (Homo sapiens, UniProt P48546); test: cAMP pharmacological functional assay in presence of casein, hGIPR; assay type: cell-based; conditions: HEK293 cells expressing hGIPR, 0.1% Casein, geometric mean; read-out: hGIPR cAMP Rel EC50 nM (SEM, n)
T3 sequence (P48546 22-466): T2 sequence (P48546 22-466)

[5] = target: human GLP-1R (Homo sapiens, UniProt P43220); test: [125I]-GLP-1 binding (SPA), human GLP-1 receptor; set-up: expressed in transfected cells; crude membranes; conditions: read-out: hGLP1R Ki, (nM) (SEM, n)
Method in brief: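 Membranes: hypotonic lysis (50 mM Tris HCl, pH 7.5, protease inhibitors), Potter-Elvehjem homogenization, high-speed pellet (35000×g 1 h or 25000×g 30 min, 4° C.). Buffer: 25 mM HEPES pH 7.4, 2.5 mM CaCl2, 1 mM MgCl2. Four-parameter IC50 fit; Ki as geometric mean ± SEM.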

Sequence of human GLP-1 receptor (GLP-1R) (P43220 24-463): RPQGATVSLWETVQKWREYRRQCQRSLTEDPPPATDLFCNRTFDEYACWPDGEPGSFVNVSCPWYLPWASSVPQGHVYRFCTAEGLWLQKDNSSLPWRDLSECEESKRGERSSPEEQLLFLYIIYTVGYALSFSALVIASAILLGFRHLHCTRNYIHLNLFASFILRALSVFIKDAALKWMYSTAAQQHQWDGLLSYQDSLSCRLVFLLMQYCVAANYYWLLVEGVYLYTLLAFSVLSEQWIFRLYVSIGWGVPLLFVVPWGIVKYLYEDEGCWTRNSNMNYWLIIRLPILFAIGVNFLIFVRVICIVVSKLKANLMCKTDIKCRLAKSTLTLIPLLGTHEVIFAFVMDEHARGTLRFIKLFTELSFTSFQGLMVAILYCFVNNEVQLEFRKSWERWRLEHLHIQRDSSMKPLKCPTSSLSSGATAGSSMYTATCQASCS
Sequence of human GLP-1R (P43220 24-463): as above
T1 sequence (P47871 26-477): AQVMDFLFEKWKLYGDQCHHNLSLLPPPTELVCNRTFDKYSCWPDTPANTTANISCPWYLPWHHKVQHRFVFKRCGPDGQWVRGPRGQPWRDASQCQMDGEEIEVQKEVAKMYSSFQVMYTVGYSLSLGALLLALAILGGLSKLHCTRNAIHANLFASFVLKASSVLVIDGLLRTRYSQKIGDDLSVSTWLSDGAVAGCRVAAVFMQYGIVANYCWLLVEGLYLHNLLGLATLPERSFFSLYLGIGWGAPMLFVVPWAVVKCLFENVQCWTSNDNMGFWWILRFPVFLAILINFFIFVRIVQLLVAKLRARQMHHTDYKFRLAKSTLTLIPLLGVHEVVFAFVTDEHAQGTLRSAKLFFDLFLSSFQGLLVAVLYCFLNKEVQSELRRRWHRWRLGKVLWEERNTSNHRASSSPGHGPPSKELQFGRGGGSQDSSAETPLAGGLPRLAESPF

SMILES | Ki [1] [nM] | Ki [2] [nM] | EC50 [3] [nM] | EC50 [4] [nM] | Ki [5] [nM]
CC[C@H](C)[C@H](NC(=O)[C@H](CC(C)C)NC(=O)[C@H](Cc1ccc(O)cc1)NC(=O)[C@H](CCC(=O)O)NC(=O)[C@@H](NC(=O)[C@H](Cc1ccccc1)NC(=O)[C@H](C)NC(=O)C(C)(C)NC(=O)[C@H](CCC(N)=O)NC(=O)[C@H](C)NC(=O)[C@H](CCCCNC(=O)COCCOCCNC(=O)COCCOCCNC(=O)CC[C@H](NC(=O)CCCCCCCCCCCCCCCCCCC(=O)O)C(=O)O)NC(=O)[C@H](CO)NC(=O)[C@H](CC(=O)O)NC(=O)[C@H](CC(C)C)NC(=O)[C@](C)(CC(C)C)NC(=O)[C@@H](NC(=O)[C@H](CO)NC(=O)[C@H](Cc1ccc(O)cc1)NC(=O)[C@H](CC(=O)O)NC(=O)[C@H](CO)NC(=O)[C@@H](NC(=O)[C@H](Cc1ccccc1)NC(=O)[C@@H](NC(=O)CNC(=O)[C@H](CCC(=O)O)NC(=O)C(C)(C)NC(=O)[C@@H](N)Cc1ccc(O)cc1)[C@@H](C)O)[C@@H](C)O)[C@@H](C)CC)[C@@H](C)CC)C(=O)N[C@@H](CCC(=O)O)C(=O)NCC(=O)NCC(N)=O [Example 64] (H-Y[Aib]EGTFTSDYSI[αMeL]LDSK([AEEA-AEEA-γGlu-C20 diacid])AQ[Aib]AFIEYLIEGG-NH2) | 260 | 0.0866 | 0.172 | 0.0916 | 4.86
CC[C@H](C)[C@H](NC(=O)[C@H](CC(C)C)NC(=O)[C@H](Cc1ccc(O)cc1)NC(=O)[C@H](CCC(=O)O)NC(=O)[C@@H](NC(=O)[C@H](Cc1ccccc1)NC(=O)[C@H](C)NC(=O)C(C)(C)NC(=O)[C@H](CCC(N)=O)NC(=O)[C@H](C)NC(=O)[C@H](CCCCNC(=O)COCCOCCNC(=O)COCCOCCNC(=O)CC[C@H](NC(=O)CCCCCCCCCCCCCCCCCCC(=O)O)C(=O)O)NC(=O)[C@H](CCCCN)NC(=O)[C@H](CC(=O)O)NC(=O)[C@H](CC(C)C)NC(=O)[C@H](CC(C)C)NC(=O)[C@H](CO)NC(=O)[C@H](CO)NC(=O)[C@H](Cc1ccc(O)cc1)NC(=O)[C@H](CC(=O)O)NC(=O)[C@H](CO)NC(=O)[C@@H](NC(=O)[C@H](Cc1ccccc1)NC(=O)[C@@H](NC(=O)CNC(=O)[C@H](CCC(=O)O)NC(=O)C(C)(C)NC(=O)[C@@H](N)Cc1ccc(O)cc1)[C@@H](C)O)[C@@H](C)O)[C@@H](C)CC)C(=O)N[C@@H](CCC(=O)O)C(=O)NCC(=O)NCC(=O)N1CCC[C@H]1C(=O)N[C@@H](CO)C(=O)N[C@@H](CO)C(=O)NCC(=O)N[C@@H](C)C(=O)N1CCC[C@H]1C(=O)N1CCC[C@H]1C(=O)N1CCC[C@H]1C(=O)N[C@@H](CO)C(N)=O [Example 58] (H-Y[Aib]EGTFTSDYSSLLDKK([AEEA-AEEA-γGlu-C20 diacid])AQ[Aib]AFIEYLIEGGPSSGAPPPS-NH2; N-terminus assumed) | 339 | 0.105 | 0.18 | 0.266 | 2.77
CC[C@H](C)[C@H](NC(=O)[C@H](CCCCN)NC(=O)[C@H](CC(=O)O)NC(=O)[C@H](CC(C)C)NC(=O)[C@H](CC(C)C)NC(=O)[C@@H](NC(=O)[C@H](CO)NC(=O)[C@H](Cc1ccc(O)cc1)NC(=O)[C@H](CC(=O)O)NC(=O)[C@H](CO)NC(=O)[C@@H](NC(=O)[C@H](Cc1ccccc1)NC(=O)[C@@H](NC(=O)CNC(=O)[C@H](CCC(=O)O)NC(=O)C(C)(C)NC(=O)[C@@H](N)Cc1ccc(O)cc1)[C@@H](C)O)[C@@H](C)O)[C@@H](C)CC)C(=O)N[C@@H](C)C(=O)N[C@@H](CCC(N)=O)C(=O)NC(C)(C)C(=O)N[C@@H](C)C(=O)N[C@@H](Cc1ccccc1)C(=O)N[C@H](C(=O)N[C@@H](CCC(=O)O)C(=O)N[C@@H](Cc1ccc(O)cc1)C(=O)N[C@@H](CC(C)C)C(=O)N[C@H](C(=O)N[C@@H](CCC(=O)O)C(=O)NCC(=O)NCC(=O)N1CCC[C@H]1C(=O)N[C@@H](CO)C(=O)N[C@@H](CO)C(=O)NCC(=O)N[C@@H](C)C(=O)N[C@@H](CCCCNC(=O)COCCOCCNC(=O)COCCOCCNC(=O)CC[C@H](NC(=O)CCCCCCCCCCCCCCCCCCC(=O)O)C(=O)O)C(=O)N1CCC[C@H]1C(=O)N1CCC[C@H]1C(=O)N[C@@H](CO)C(N)=O)[C@@H](C)CC)[C@@H](C)CC [Example 45] (H-Y[Aib]EGTFTSDYSILLDKIAQ[Aib]AFIEYLIEGGPSSGAK([AEEA-AEEA-γGlu-C20 diacid])PPS-NH2) | 11.1 | 0.0463 | 1.03 | 0.106 | 5.65
CC[C@H](C)[C@H](NC(=O)[C@H](CC(C)C)NC(=O)[C@H](Cc1ccc(O)cc1)NC(=O)[C@@H](CCC(=O)O)NC(=O)[C@@H](NC(=O)[C@H](Cc1ccccc1)NC(=O)[C@H](CCC(=O)O)NC(=O)C(C)(C)NC(=O)[C@H](CCC(N)=O)NC(=O)[C@H](C)NC(=O)[C@H](CCCCNC(=O)COCCOCCNC(=O)COCCOCCNC(=O)CC[C@H](NC(=O)CCCCCCCCCCCCCCCCCCC(=O)O)C(=O)O)NC(=O)[C@H](CCCCN)NC(=O)[C@H](CC(=O)O)NC(=O)[C@H](CC(C)C)NC(=O)[C@](C)(CC(C)C)NC(=O)[C@@H](NC(=O)[C@H](CO)NC(=O)[C@H](Cc1ccc(O)cc1)NC(=O)[C@H](CC(=O)O)NC(=O)[C@H](CO)NC(=O)[C@@H](NC(=O)[C@](C)(Cc1ccccc1)NC(=O)[C@@H](NC(=O)CNC(=O)[C@H](CCC(=O)O)NC(=O)C(C)(C)NC(=O)[C@@H](N)Cc1ccc(O)cc1)[C@@H](C)O)[C@@H](C)O)[C@@H](C)CC)[C@@H](C)CC)C(=O)N[C@@H](CCC(=O)O)C(=O)NCC(=O)NCC(=O)N1CCC[C@H]1C(=O)N[C@@H](CO)C(=O)N[C@@H](CO)C(=O)NCC(N)=O [Example 228] (H-Y[Aib]EGT[αMeF]TSDYSI[αMeL]LDKK([AEEA-AEEA-γGlu-C20 diacid])AQ[Aib]EFI[dE]YLIEGGPSSG-NH2) | 182 | 0.028 | 0.0282 | 0.0503 | 2.43
CC[C@H](C)[C@H](NC(=O)[C@H](CC(C)C)NC(=O)[C@H](Cc1ccc(O)cc1)NC(=O)[C@@H](CCC(=O)O)NC(=O)[C@@H](NC(=O)[C@H](Cc1ccccc1)NC(=O)[C@H](CCC(=O)O)NC(=O)C(C)(C)NC(=O)[C@H](CCC(N)=O)NC(=O)[C@H](C)NC(=O)[C@H](CCCCNC(=O)COCCOCCNC(=O)COCCOCCNC(=O)CC[C@H](NC(=O)CCCCCCCCCCCCCCCCC(=O)O)C(=O)O)NC(=O)[C@H](CCCN)NC(=O)[C@H](CC(=O)O)NC(=O)[C@H](CC(C)C)NC(=O)C(C)(C)NC(=O)[C@@H](NC(=O)[C@H](CO)NC(=O)[C@H](Cc1ccc(O)cc1)NC(=O)[C@H](CC(=O)O)NC(=O)[C@H](CO)NC(=O)[C@@H](NC(=O)C(C)(Cc1ccccc1F)NC(=O)[C@@H](NC(=O)CNC(=O)[C@H](CCC(=O)O)NC(=O)C(C)(C)NC(=O)[C@@H](N)Cc1ccc(O)cc1)[C@@H](C)O)[C@@H](C)O)[C@@H](C)CC)[C@@H](C)CC)C(=O)N[C@@H](CCC(=O)O)C(=O)NCC(=O)NCC(=O)N1CCC[C@H]1C(=O)N[C@@H](CO)C(=O)N[C@@H](CO)C(=O)NCC(=O)N[C@@H](C)C(=O)N1CCC[C@H]1C(=O)N1CCC[C@H]1C(=O)N1CCC[C@H]1C(=O)N[C@@H](CO)C(N)=O (stereo partly drawn) [Example 247] | > 1100 | > 55.1 | 0.0491 | 0.0622 | 4.39
CC[C@H](C)[C@H](NC(=O)[C@H](CC(C)C)NC(=O)[C@H](Cc1ccc(O)cc1)NC(=O)[C@H](CCC(=O)O)NC(=O)[C@@H](NC(=O)[C@H](Cc1ccccc1)NC(=O)[C@H](C)NC(=O)C(C)(C)NC(=O)[C@H](CCC(N)=O)NC(=O)[C@H](C)NC(=O)[C@H](CCCCNC(=O)COCCOCCNC(=O)COCCOCCNC(=O)CC[C@H](NC(=O)CCCCCCCCCCCCCCCCCCC(=O)O)C(=O)O)NC(=O)[C@H](CCCCN)NC(=O)[C@H](CC(=O)O)NC(=O)[C@H](CC(C)C)NC(=O)[C@](C)(CC(C)C)NC(=O)[C@@H](NC(=O)[C@H](CO)NC(=O)[C@H](Cc1ccc(O)cc1)NC(=O)[C@H](CC(=O)O)NC(=O)[C@H](CO)NC(=O)[C@@H](NC(=O)[C@H](Cc1ccccc1)NC(=O)[C@@H](NC(=O)CNC(=O)[C@H](CCC(=O)O)NC(=O)C(C)(C)NC(=O)[C@@H](N)Cc1c[nH]cn1)[C@@H](C)O)[C@@H](C)O)[C@@H](C)CC)[C@@H](C)CC)C(=O)N[C@@H](CCC(=O)O)C(=O)NCC(=O)NCC(=O)N1CCC[C@H]1C(=O)N[C@@H](CO)C(=O)N[C@@H](CO)C(=O)NCC(=O)N[C@@H](C)C(=O)N1CCC[C@H]1C(=O)N1CCC[C@H]1C(=O)N1CCC[C@H]1C(=O)N[C@@H](CO)C(N)=O [Example 53] (H-H[Aib]EGTFTSDYSI[αMeL]LDKK([AEEA-AEEA-γGlu-C20 diacid])AQ[Aib]AFIEYLIEGGPSSGAPPPS-NH2; N-terminus assumed) | 216 | 0.188 | 0.0339 | 0.628 | 1.23
